The numbers were not newly measured in US7838668B2, “Method for crystallizing sucralose” (JK Sucralose Inc., priority 2006, dated 2010), which cites them from elsewhere.

For this data set the following is noted: relative to sucrose; background statement, no test described.

With `OC[C@H]1O[C@H](O[C@]2(CCl)O[C@H](CCl)[C@@H](O)[C@@H]2O)[C@H](O)[C@@H](O)[C@H]1Cl` [sucralose], the sweetness was 600 times of sucrose.
